# Patent US11931431B2, “PSMA-targeted radiopharmaceutical for diagnosing and treating prostate cancer” (FUTURECHEM CO., LTD, priority 2018, dated 2024)
# Tests used:
# [1] = tested on: PSMA^+ PC-3 PIP tumors; experiment: Biodistribution test with mice transplanted with prostate cancer cell lines (gamma counter); assay type: in vivo, nude mouse; conditions: 5 hours after injection
# Description: After 270 minutes of [^68Ga]1e and [^68Ga]1g injection, microPET/CT images were obtained for 30 minutes, and then each organ (blood, muscle, fat, heart, lung, liver, spleen, stomach, intestine, kidney, bone and tumor) was extracted and the radioactivity thereof was measured using a gamma counter.
# [2] = tested on: PSMA^+ PC-3 PIP tumors; experiment: MicroPET/CT imaging of mice transplanted with prostate cancer cell lines; assay type: in vivo, nude mouse
# Procedure, shortened: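 Nude mice bearing subcutaneous PSMA^+ PC-3 PIP hind-leg tumors received ^68Ga-labeled compound i.v. at 5.5 to 6.5 MBq. MicroPET/CT acquired dynamically for 60 minutes, then 30-minute scans at 150, 270 and 390 minutes; images quantified as % injected dose/g.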
# [3] = Measurement of lipophilicity (log P), n-octanol/PBS; assay type: physicochemical; conditions: mean of 3
# Description: Each of the [^68Ga]1 compounds (1˜2 mci) synthesized in Example 14 was transferred into a vial, and the solvent was removed, to which 1 mL of n-octanol and 1 mL of PBS were added, and the lid was well closed, followed by mixing with a vortex for 1 minute. After the layers were separated, 0.1 mL was taken from each layer and the radiation dose was measured. The radiation dose was measured by repeating 3 times, and the mean value was obtained.
# [4] = molecular target: PSMA (Homo sapiens, UniProt Q04609); conditions: cited from earlier work
# Chain of PSMA (Q04609 whole entry): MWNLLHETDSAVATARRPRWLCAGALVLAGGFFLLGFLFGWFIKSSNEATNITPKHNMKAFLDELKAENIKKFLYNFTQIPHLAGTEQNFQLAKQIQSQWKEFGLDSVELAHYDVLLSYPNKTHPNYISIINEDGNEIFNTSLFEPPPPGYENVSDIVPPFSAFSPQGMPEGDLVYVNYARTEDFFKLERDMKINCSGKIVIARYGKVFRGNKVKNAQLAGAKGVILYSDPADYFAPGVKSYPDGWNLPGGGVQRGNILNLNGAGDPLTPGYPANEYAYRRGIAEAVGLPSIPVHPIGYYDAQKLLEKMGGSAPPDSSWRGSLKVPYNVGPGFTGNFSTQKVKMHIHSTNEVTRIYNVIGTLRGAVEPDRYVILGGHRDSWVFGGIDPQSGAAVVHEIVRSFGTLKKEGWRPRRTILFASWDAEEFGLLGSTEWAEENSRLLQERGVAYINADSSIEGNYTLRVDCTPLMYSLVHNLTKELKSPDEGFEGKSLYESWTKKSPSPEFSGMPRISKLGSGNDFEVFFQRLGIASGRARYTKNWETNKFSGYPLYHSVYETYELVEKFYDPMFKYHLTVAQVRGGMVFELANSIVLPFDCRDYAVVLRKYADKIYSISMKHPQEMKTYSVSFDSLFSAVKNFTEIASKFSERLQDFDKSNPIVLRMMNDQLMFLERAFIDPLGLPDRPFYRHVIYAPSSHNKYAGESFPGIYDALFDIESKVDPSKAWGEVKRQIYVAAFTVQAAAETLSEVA
structure (smiles),measurement,setting,value
Cc1ccc(CCCC(=O)NCCCCC(NC(=O)CN2CCN3CCN4CCN(CC2)CC(=O)[O][68Ga]([O]C(=O)C3)[O]C(=O)C4)C(=O)NCCOCCOCC(=O)N(CCCCC(NC(=O)NC(CCC(=O)O)C(=O)O)C(=O)O)CC(=O)O)cc1 (stereo not shown) [[^68Ga]1g],"tumor intake rate, times higher than that of [^68Ga]1e",[1],about 1.4 times
same,Radioactivity in mouse organ: Blood,[1]; gamma counter,0.02 ± 0.03 % ID/g
same,Radioactivity in mouse organ: Bone,[1]; gamma counter,0.01 ± 0.01 % ID/g
same,Radioactivity in mouse organ: Fat,[1]; gamma counter,0.11 ± 0.15 % ID/g
same,Radioactivity in mouse organ: Heart,[1]; gamma counter,0.02 ± 0.01 % ID/g
same,Radioactivity in mouse organ: Intestine,[1]; gamma counter,0.09 ± 0.08 % ID/g
same,Radioactivity in mouse organ: Kidney,[1]; gamma counter,9.15 ± 11.26 % ID/g
same,Radioactivity in mouse organ: Liver,[1]; gamma counter,0.03 ± 0.01 % ID/g
same,Radioactivity in mouse organ: Lung,[1]; gamma counter,0.07 ± 0.07 % ID/g
same,Radioactivity in mouse organ: Muscle,[1]; gamma counter,0.01 ± 0.00 % ID/g
same,Radioactivity in mouse organ: Spleen,[1]; gamma counter,0.20 ± 0.27 % ID/g
same,Radioactivity in mouse organ: Stomach,[1]; gamma counter,0.02 ± 0.02 % ID/g
same,intake of mouse organ: Bladder,[2]; 10 min after injection,2.28 ± 0.11 % ID/g
same,intake of mouse organ: Kidney,[2]; 10 min after injection,16.40 ± 0.10 % ID/g
same,intake of mouse organ: Liver,[2]; 10 min after injection,9.55 ± 2.22 % ID/g
same,intake of mouse organ: Muscle,[2]; 10 min after injection,1.49 ± 1.64 % ID/g
same,intake of mouse organ: Tumor (PIP),[2]; 10 min after injection,2.18 ± 0.63 % ID/g
same,intake of mouse organ: Bladder,[2]; 20 min after injection,6.98 ± 2.51 % ID/g
same,intake of mouse organ: Kidney,[2]; 20 min after injection,19.80 ± 0.73 % ID/g
same,intake of mouse organ: Liver,[2]; 20 min after injection,7.26 ± 1.06 % ID/g
same,intake of mouse organ: Muscle,[2]; 20 min after injection,1.88 ± 2.00 % ID/g
same,intake of mouse organ: Tumor (PIP),[2]; 20 min after injection,4.42 ± 1.50 % ID/g
same,intake of mouse organ: Bladder,[2]; 30 min after injection,13.51 ± 5.83 % ID/g
same,intake of mouse organ: Kidney,[2]; 30 min after injection,21.18 ± 2.17 % ID/g
same,intake of mouse organ: Liver,[2]; 30 min after injection,6.10 ± 0.50 % ID/g
same,intake of mouse organ: Muscle,[2]; 30 min after injection,1.69 ± 1.78 % ID/g
same,intake of mouse organ: Tumor (PIP),[2]; 30 min after injection,5.43 ± 1.94 % ID/g
same,intake of mouse organ: Bladder,[2]; 40 min after injection,18.89 ± 8.84 % ID/g
same,intake of mouse organ: Kidney,[2]; 40 min after injection,22.74 ± 3.48 % ID/g
same,intake of mouse organ: Liver,[2]; 40 min after injection,5.38 ± 0.22 % ID/g
same,intake of mouse organ: Muscle,[2]; 40 min after injection,1.61 ± 1.69 % ID/g
same,intake of mouse organ: Tumor (PIP),[2]; 40 min after injection,6.43 ± 2.32 % ID/g
same,intake of mouse organ: Bladder,[2]; 50 min after injection,22.76 ± 10.86 % ID/g
same,intake of mouse organ: Kidney,[2]; 50 min after injection,24.20 ± 4.60 % ID/g
same,intake of mouse organ: Liver,[2]; 50 min after injection,4.75 ± 0.07 % ID/g
same,intake of mouse organ: Muscle,[2]; 50 min after injection,1.54 ± 1.62 % ID/g
same,intake of mouse organ: Tumor (PIP),[2]; 50 min after injection,7.33 ± 2.76 % ID/g
same,intake of mouse organ: Bladder,[2]; 60 min after injection,24.74 ± 11.23 % ID/g
same,intake of mouse organ: Kidney,[2]; 60 min after injection,25.78 ± 4.72 % ID/g
same,intake of mouse organ: Liver,[2]; 60 min after injection,4.41 ± 0.03 % ID/g
same,intake of mouse organ: Muscle,[2]; 60 min after injection,1.32 ± 1.33 % ID/g
same,intake of mouse organ: Tumor (PIP),[2]; 60 min after injection,8.29 ± 2.99 % ID/g
same,intake of mouse organ: Bladder,[2]; 150 min after injection,42.3 ± 41.58 % ID/g
same,intake of mouse organ: Kidney,[2]; 150 min after injection,15.75 ± 11.53 % ID/g
same,intake of mouse organ: Liver,[2]; 150 min after injection,0.45 ± 0.11 % ID/g
same,intake of mouse organ: Muscle,[2]; 150 min after injection,0.21 ± 0.03 % ID/g
same,intake of mouse organ: Tumor (PIP),[2]; 150 min after injection,11.4 ± 5.23 % ID/g
same,intake of mouse organ: Bladder,[2]; 270 min after injection,12.05 ± 2.76 % ID/g
same,intake of mouse organ: Kidney,[2]; 270 min after injection,12.45 ± 9.69 % ID/g
same,intake of mouse organ: Liver,[2]; 270 min after injection,0.22 ± 0.01 % ID/g
same,intake of mouse organ: Muscle,[2]; 270 min after injection,0.06 ± 0.02 % ID/g
same,intake of mouse organ: Tumor (PIP),[2]; 270 min after injection,13.00±4.95 % ID/g
same,tumor intake increase compared to [^68Ga]1e,[2]; 270 minutes,about 3 times
same,"excretion, in words",[2]; MicroPET/CT,rapidly excreted out of the body
same,"residence time in the blood, in words",[2]; MicroPET/CT,residence time in the blood was increased
same,"tumor intake over time, in words",[2]; MicroPET/CT,tumor intake was increased over time
same,logP,[3],−2.42
O=C(O)CC[C@H](NC(=O)N[C@@H](CCCCNC(=O)Nc1ccc([125I])cc1)C(=O)O)C(=O)O [[^125I]30],Kd,[4],0.13 nM
